Reference: patent US8492570B2, “2-substituted estra-1,3,5(10)-triene-3-yl sulfamate with an anti-tumor action” (Sterix Limited, priority 2003, dated 2013)

Columns and labels:
[1] = test system: NCl-H460 human non-small-cell lung cancer cells; assay: Inhibition of cell proliferation, crystal violet staining; assay type: cell-based; conditions: NCl-H460, 4 days incubation
Procedure: (§1) Cell cultures of the following cell lines were prepared in 96-well microtiter plates: • 1. MaTu/ADR multidrug-resistant human breast tumor cells (Epo GmbH Berlin), 5000 cells/well. • 2. HCT116 human colon tumor cells (ATCC CCL-247), 3000 cells/well. • 3. NCl-H460 human non-small-cell lung cancer cells (ATCC HTB-177), 3000 cells/well. • 4. DU145 human prostate tumor cells (ATCC HTB-81), 5000 cells/well. • 5. HMVEC human primary dermal microvascular endothelial cells, 7500 cells/well.
(§2) After 24 hours of incubation in a cell culture incubator at 37° C., the cells of a microtiter plate were stained with crystal violet (reference plate), while the cells in the test plates were incubated for 4 days with the test substances in the concentrations […], as well as with the DMSO solvent by itself (solvent control). The cell proliferation was determined by staining cells with crystal violet. The extinction of the crystal violet was determined by photometry at 595 nm. The percentage of the change in the cell number in the test plates was determined after the extinction values were normalized to the reference plate (0%) and to the solvent control (100%). The semi-maximal inhibition of the cell growth (IC50) was determined as the substance concentration, in which 50% of the cell number of the solvent controls were present.

[2] = test system: DU145 human prostate tumor cells; assay: as above; assay type: cell-based; conditions: DU145, 4 days incubation
Procedure: as §1, §2

[3] = test system: HCT116 human colon tumor cells; assay: as above; assay type: cell-based; conditions: HCT116, 4 days incubation
Procedure: as §1, §2

[4] = test system: MaTu/ADR multidrug-resistant human breast tumor cells; assay: as above; assay type: cell-based; conditions: 4 days incubation
Procedure: as §1, §2

[5] = test system: HMVEC human primary dermal microvascular endothelial cells; assay: as above; assay type: cell-based; conditions: 4 days incubation
Procedure: as §1, §2

[6] = target: T1, microtubular protein (tubulin) purified from pig brains (Sus scrofa, UniProt P02550+P02554); assay: Inhibition of tubulin polymerization (turbidimetry at 340 nm); assay type: biochemical; conditions: pig brain microtubular protein 1 mg/ml, 0.25 mmol GTP, 37° C.
T1 construct: microtubular protein was purified from pig brains via cyclic assembling/disassembling; from tissue; host or cells: pig brain
T1 sequence (P02550 whole entry): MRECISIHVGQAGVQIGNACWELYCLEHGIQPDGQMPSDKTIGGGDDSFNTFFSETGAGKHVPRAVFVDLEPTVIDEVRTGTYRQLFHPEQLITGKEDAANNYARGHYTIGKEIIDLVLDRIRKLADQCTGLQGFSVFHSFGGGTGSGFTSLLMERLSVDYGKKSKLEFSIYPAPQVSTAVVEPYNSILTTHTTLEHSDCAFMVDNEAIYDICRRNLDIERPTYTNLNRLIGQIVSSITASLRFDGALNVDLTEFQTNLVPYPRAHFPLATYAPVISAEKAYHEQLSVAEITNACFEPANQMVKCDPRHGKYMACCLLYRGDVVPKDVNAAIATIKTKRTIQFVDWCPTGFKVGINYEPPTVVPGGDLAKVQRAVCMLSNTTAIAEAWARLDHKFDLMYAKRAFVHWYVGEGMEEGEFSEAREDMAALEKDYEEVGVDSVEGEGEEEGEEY
T1 sequence (P02554 whole entry): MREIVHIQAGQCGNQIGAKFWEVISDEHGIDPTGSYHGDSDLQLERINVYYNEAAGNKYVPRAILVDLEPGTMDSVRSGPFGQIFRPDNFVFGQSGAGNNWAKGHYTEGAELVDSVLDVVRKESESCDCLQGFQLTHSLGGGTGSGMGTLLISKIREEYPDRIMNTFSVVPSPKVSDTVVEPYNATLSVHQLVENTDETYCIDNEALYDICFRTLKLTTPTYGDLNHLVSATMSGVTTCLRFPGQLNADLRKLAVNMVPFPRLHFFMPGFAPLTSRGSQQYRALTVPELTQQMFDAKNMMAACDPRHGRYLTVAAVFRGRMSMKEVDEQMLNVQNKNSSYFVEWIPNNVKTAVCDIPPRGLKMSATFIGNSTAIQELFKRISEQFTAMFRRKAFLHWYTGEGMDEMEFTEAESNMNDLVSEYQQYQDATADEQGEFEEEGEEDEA
Procedure: The in-vitro testing of the tubulin polymerization influence was performed as follows:
The buffer system used had the following composition: 20 mmol of PIPES (1,4-piperazine-diethane-sulfonic acid, pKa 6.8), 80 mmol of NaCl, 0.5 mmol of MgCl2, 1 mmol of EGTA (ethylene glycol-bis-(2-aminoethylene)-tetraacetic acid).
For active ingredient testing, protein concentrations of 1 mg/ml (about 10^−5 mmol of tubulin) were used. […] The assembling of microtubuli was carried out in the presence of 0.25 mmol of GTP and heating the samples to 37° C.
The microtubulus formation was examined by means of turbidimetry at a wavelength of 340 nm.
Testing of the active ingredients was carried out by their addition at the beginning of the assembling or in the state of equilibrium. Deviations of turbidity curves from the control characterize its activity. To monitor action and to evaluate the measured turbidity values, a transmission electron microscopic study (CEM 902 A, Zeiss/Oberkochen) of the assemblates was always performed after negative staining with 1% aqueous uranyl acetate.

Structure (SMILES) | IC50 [1] [nM] | IC50 [2] [nM] | IC50 [3] [nM] | IC50 [4] [nM] | IC50 [5] [nM] | IC50 [6] [nM] | IC50 ([1]; Homo sapiens, 96 h) [nM] | IC50 ([2]; Homo sapiens, DU-145, 96 h) [nM] | IC50 ([3]; Homo sapiens, HCT-116, 96 h) [nM] | IC50 ([4]; Homo sapiens, 96 h) [nM] | IC50 ([5]; Homo sapiens, 96 h) [nM]
COc1cc2c(cc1O)CC[C@@H]1[C@@H]2CC[C@]2(C)[C@@H](O)CC[C@@H]12 [2-Methoxyestradiol, reference compound] | 1800 | 1900 | 1100 | 200 | 2200 | 2700 | – | – | – | – | –
COc1cc2c(cc1OS(N)(=O)=O)CC[C@@H]1[C@@H]2CC[C@]2(C)CCC[C@@H]12 [(1), 2-Methoxy-estra-1,3,5(10)-trien-3-yl Sulfamate] | – | – | – | – | – | 670 | 400 | 500 | 400 | 110 | < 100
CCc1cc2c(cc1OS(N)(=O)=O)CC[C@@H]1[C@@H]2CC[C@]2(C)[C@@H](OC)CC[C@@H]12 [(3), 2-Ethyl-17β-methoxy-estra-1,3,5(10)-trien-3-yl sulfamate] | – | – | – | – | – | 1400 | 180 | 180 | 180 | 120 | 160
C=C1CC[C@H]2[C@@H]3CCc4cc(OS(N)(=O)=O)c(OC)cc4[C@H]3CC[C@]12C [(4), 2-Methoxy-17(20)-methylene-estra-1,3,5(10)-trien-3-yl Sulfamate] | – | – | – | – | – | 1400 | 180 | 180 | 180 | < 100 | 160
COc1cc2c(cc1OS(N)(=O)=O)CC[C@@H]1[C@@H]2CC[C@]2(C)[C@@H](C)CC[C@@H]12 [(5), 2-methoxy-17β-methyl-estra-1,3,5(10)-trien-3-yl sulfamate] | – | – | – | – | – | 1300 | – | – | – | – | –
C=C1CC[C@H]2[C@@H]3CC(=NO)c4cc(OS(N)(=O)=O)c(OC)cc4[C@H]3CC[C@]12C [(7), 2-Methoxy-17(20)-methylene-6-oximino-estra-1,3,5(10)-trien-3-yl Sulfamate] | 500 | 550 | 500 | 130 | 130 | – | – | – | – | – | –
COc1cc2c(cc1OS(N)(=O)=O)CC[C@@H]1[C@@H]2CC[C@]2(C)C(=C(F)F)CC[C@@H]12 [(8), 17(20)-Difluoromethylene-2-methoxy-estra-1,3,5(10)-trien-3-yl Sulfamate] | – | – | – | – | – | 1100 | 220 | 500 | 300 | 170 | 200
COc1cc2c(cc1OS(N)(=O)=O)CC[C@@H]1[C@@H]2CC[C@]2(C)[C@@H](C(F)F)CC[C@@H]12 [(9), 17β-Difluoromethyl-2-methoxy-estra-1,3,5(10)-trien-3-yl Sulfamate] | – | – | – | – | – | 1500 | 220 | 400 | 300 | 110 | 200
COc1cc2c(cc1OS(N)(=O)=O)CC[C@@H]1[C@@H]2CC[C@]2(C)[C@@H](CO)CC[C@@H]12 [(11), 17β-Hydroxymethyl-2-methoxy-estra-1,3,5(10)-trien-3-yl Sulfamate] | – | – | – | – | – | – | 180 | 200 | 180 | < 100 | < 100
CC(=O)O[C@H]1C(=O)[C@@]2(C)[C@H]([C@H](OC(=O)c3ccccc3)[C@]3(O)C[C@H](OC(=O)[C@H](O)[C@@H](NC(=O)c4ccccc4)c4ccccc4)C(C)=C1C3(C)C)[C@]1(OC(C)=O)CO[C@@H]1C[C@@H]2O [Taxol, reference compound] | – | – | – | – | – | – | 4 | 4 | 4 | 400 | 4
